# According to patent US11420922B2, “Hydroxylated tropolone inhibitors of nucleotidyl transferases in herpesvirus and Hepatitis B and uses therefor” (Saint Louis University, priority 2015, dated 2022):
# Assays:
# [1] = system: HSV-1; settings: 5 μM or less; cited from earlier work
# [2] = system: HBV replication; assay: Chou-Talalay combination of RNAseH inhibitors with Lamivudine against HBV replication; format: cell-based, Hepatitis B virus; settings: CI <1.0 synergy, ~1.0 additive, >1.0 antagonism
# Description: Additive interactions are shown with the red line, synergistic interactions below the line, and antagonistic interactions are above the line.
# Current nucleos(t)ide analog therapy for HBV has converted hepatitis type B from an implacably progressing illness to a controllable disease. However, patients are only very rarely cured, in part due to the incomplete inhibition of HBV replication. The inventors hypothesized that the novel RNaseH inhibitors would work synergistically with the existing nucleos(t)ide analogs because the two classes of drugs target physically distinct active sites on the viral polymerase protein. […] RNAseH inhibitors from two different chemical classes were employed, compound #1 [2-hydroxyisoquinoline-1,3(2H,4H)-dione], an HID, and #46 (β-thujaplicinol), an α-hydroxytropolone, were tested. Chou-Talaly analysis yields a combination index (CI). CI values<1.0 indicate synergy, CIs of approximately 1.0 indicate additive interactions, and CI values>1.0 indicate antagonism. CI values are calculated at various efficacy levels (EC50, EC75, EC90, and EC95), and a weighted CI value favoring higher efficacy levels is also generated. FIGS. 6A & 6B show the results of four experiments employing compound #1 and three with compound #46. […] Therefore, RNAseH inhibitors act strongly synergistically with an approved nucleos(t)ide analog drug against HBV.
# [3] = system: patient-derived RNAseH enzymes (genotypes B, C and D); assay: Biochemical RNAseH assay with patient-derived variant enzymes; parameters: species or system Hepatitis B virus
# Description: Four variant patient-derived RNAseH enzymes were expressed as recombinant enzymes, purified, and tested in an RNAseH assay with compounds #1 (FIG. 7A) and #46 (FIG. 7B) at their respective IC50s.
# HBV has at least 8 genotypes differing in sequence by 8%. Genetic diversity in the RNAseH domain is about 6%, which is easily high enough to modulate viral sensitivity to RNAseH inhibitors. Therefore, the inventors tested the RNAseH inhibitors #1 [2-hydroxyisoquinoline-1,3(2H,4H)-dione], an HID, and #46 (β-thujaplicinol), an α-hydroxytropolone, for the ability to inhibit variant RNAseHs. Twelve purified, patient-derived RNAseH enzymes (4 from each genotypes B, C and D) were tested with the compounds at their respective IC50 values in a biochemical RNAseH assay. […] Therefore, HBV's high genetic variation is unlikely to present a substantial barrier to drug development.
# [4] = system: HSV-2; settings: 5 μM or less; cited from earlier work
# [5] = Mouse liver microsome assay; format: in vitro ADME; settings: 1 μM in mouse liver microsomes; for ER: extraction ratio
# Procedure: Microsomal incubations are run at a final P450 concentration of 0.25 μM. The microsomal mixture is composed of 0.1M potassium phosphate containing 3.3 mM MgCl and 1 μM compound (final concentration). The mixture is prewarmed for 5 min at 37° C. To initiate the reaction a 12 mM stock of NAPDH (1.2 mM, final concentration) is added to the warmed microsomal mixture and aliquots are removed at 0, 5, 10, 20 and 30 min. Samples are quenched with ice cold acetonitrile containing internal standard and either 1.8 mM EDTA or EGTA (final concentration). Samples are vortexed and spun down at 3200 rpm for 5 min. The supernant is transferred to 96-deep well plates and run on LC/MS/MS.
# [6] = system: HSV-2; assay: Anti-HSV-2 replication assay in Vero cells, titers by plaque assay; format: cell-based, herpes simplex virus 2; settings: Human alphaherpesvirus 2, Vero, 24 h; for log reduction at 5 µM: read-out: HSV-2 Log suppression 5 μM; for log reduction at 50 µM: read-out: HSV-2 Log suppression 50 μM
# [7] = system: HSV; assay: Anti-HSV SAR summary, HSV type not separated; format: cell-based, herpes simplex virus; settings: grouped by activity at 50, 5 and 0.5 μM
# Outline: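 Confluent monolayers were infected with HSV-1 or HSV-2 at MOI 0.1 in the presence of compound at 50 and 5 µM for 1 h at 37 °C. Compound was then re-added in DMEM/2% newborn calf serum for 23 h more. Yield was titred by plaque assay on Vero cells, with DMSO controls. EC50 values came from serial dilutions starting at 50 µM, fitted by non-linear regression.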
# [8] = system: HBV; assay: HBV replication assay in HepDES19 cells; format: cell-based; settings: Hepatitis B virus; HepDES19 cells; read-out: EC50 (HBV assay)
# Outline: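 HepDES19 cells induced by tetracycline withdrawal, then compound applied 48 h later in duplicate (1% DMSO final) and refreshed daily for two more days. After micrococcal nuclease digestion, capsid-associated HBV DNA purified and plus- and minus-strand DNA quantified by TaqMan PCR.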
# [9] = system: HSV-1; assay: Anti-HSV-1 replication assay in Vero cells, titers by plaque assay; format: cell-based, herpes simplex virus 1; settings: Human alphaherpesvirus 1, Vero, 24 h; for log reduction at 5 µM: read-out: HSV-1 Log suppression 5 μM; for log reduction at 50 µM: read-out: HSV-1 Log suppression 50 μM
# Outline: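 Vero monolayers infected with clinical HSV-1 or HSV-2 isolates at MOI 0.1 with compound present (50 and 5 μM final), 1 h at 37° C, then compound in DMEM for another 23 h. Yield titered by plaque assay on Vero cells; EC50 by nonlinear fit of serial dilutions starting at 50 μM, DMSO controls.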
# [10] = system: Vero cells; assay: Qualitative (visual) Vero cell toxicity; format: cell-based; settings: visual inspection in primary screen, key to t, T not given
# Procedure: Qualitative assessments of cytotoxicity were done visually by inspecting the cells in the primary screening assays. For the quantitative assays, cells were plated in 96-well plates at 1.0×10^4 per well. The next day the compounds were added at 0.78 to 100 μM in a final concentration of 1% (v/v) DMSO, and the cells were incubated for 24 hours under conditions identical to those employed for the viral replication inhibition assays. Mitochondrial toxicity was measured by incubating the cells with 0.25 mg/mL thiazolyl blue tetrazolium bromide (MTT, Sigma Aldrich Chemical Co.), the cultures were incubated for 60 min, metabolites were solubilized in acidic isopropanol, and absorbance was read at 570 nm. CC50 values were calculated by non-linear curve fitting using GraphPad Prism.
# Compound toxicity was measured both subjectively and quantitatively. Subjective assessments were done by visually inspecting the infected cells at the end of the 24 h infection window through a phase-contrast microscope.
Structure (SMILES),"suppression of HSV-1 replication in cell culture, in words [1]",weighted CI value (combination index) with Lamivudine [2],"inhibition of four genotype D RNAseH enzymes ([3]; compound at its IC50, FIGS. 7A & 7B)","inhibition of all 12 variant RNAseH enzymes, in words ([3]; compound at its IC50, genotypes B, C and D)","suppression of HSV-2 replication in cell culture, in words [4]",CL ′hep [5],CL′int [5],Non-P450 turn-over [5],t ½ [5],ER [5],log reduction at 5 µM [6],log reduction at 50 µM [6],"anti-HSV SAR group, in words [7]",EC50 [8],log reduction at 5 µM [9],log reduction at 50 µM [9],Vero cell toxicity Qualitative [10],half-life at 1 μM ([5]; read-out: t ½),"CLint scaled at 1 μM ([5]; mouse, liver microsomes)","predicted hepatic clearance at 1 μM ([5]; mouse, liver microsomes, read-out: CL ′hep)"
"CC(C)c1ccc(O)c(=O)c(O)c1 [Compound 46, β-thujaplicinol, reference compound]",strongly suppress,0.44±0.3,about 50%,Equivalent results,strongly suppress,70 mL/min/kg,318 mL/min/kg,No,0.267 h,0.78,,,,,,,,,,
CC(=O)c1cc(O)c(=O)c(O)cc1C [Compound 110],,,,,,,,No,,0.22,-0.65,4.24,weakest inhibitors,0.34 µM,-0.47,5.11,t?,> 2 h,26 mL/min/kg,20 mL/min/kg
CCOC(=O)c1c(C)cc(O)c(=O)c(O)c1C [Compound 117],,,,,,,,,,,-0.16,4.97,weakest inhibitors,,0.76,4.66,t?,,,
